Consider seven compounds from PubChem BioAssay (NCI).

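Tested at 5 concentrations; 48 h exposure; 96-well plates; endpoints linearly interpolated, else capped at highest concentration. At the GI50, growth is halved. TGI is the concentration that stops growth completely.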

Some test systems named below: TK-10 renal; U251 CNS; SR leukemia; RPMI-8226 leukemia; COLO 205 colon; SK-MEL-2 melanoma; OVCAR-5 ovarian; DU-145 prostate; SK-OV-3 ovarian; HS 578T breast.
Assay in all cases: NCI anticancer screen, dose series, 48 h

Regarding `C[C@]12CC[C@@H](OC(=O)N(CCCl)N=O)C[C@@H]1CC[C@@H]1[C@@H]2CC[C@]2(C)C(=O)CC[C@@H]12`, the GI50 with TK-10 renal was 12 µM; in the assay on U251 CNS, 0.851 µM; with SR leukemia, 0.0156 µM; with RPMI-8226 leukemia it was 14.8 µM; in the assay on COLO 205 colon, 1.6 µM; with SK-MEL-2 melanoma, 17.1 µM. Moreover, the GI50 is 27.2 µM in the assay on OVCAR-5 ovarian, 0.671 µM in the assay on DU-145 prostate, 3.43 µM in the assay with SK-OV-3 ovarian and 3.04 µM with HS 578T breast. The TGI in the assay on TK-10 renal is 33.1 µM; in the assay with U251 CNS it was 15.7 µM; with SR leukemia, 6.82 µM; in the assay with RPMI-8226 leukemia, over 50.8 µM; in the assay with COLO 205 colon, 3.88 µM; in the assay on SK-MEL-2 melanoma it was 38 µM. For the same compound, the TGI stood at 57.7 µM in the assay with OVCAR-5 ovarian, 7.54 µM with DU-145 prostate, 14.3 µM in the assay with SK-OV-3 ovarian and 17.9 µM in the assay on HS 578T breast.
With `O=C(Nc1ccc(Br)cc1)Nc1nn(C(=O)Nc2ccc(Br)cc2)c2ccccc12`, the GI50 was 39.2 µM in the assay with TK-10 renal; 13.4 µM in the assay on U251 CNS; 30.5 µM in the assay with SR leukemia; over 51.7 µM with RPMI-8226 leukemia; over 100 µM with COLO 205 colon; 23.7 µM in the assay with SK-MEL-2 melanoma. Further, the GI50 in the assay on OVCAR-5 ovarian is over 100 µM; in the assay on DU-145 prostate, 28.9 µM; in the assay on SK-OV-3 ovarian, 16.9 µM; in the assay with HS 578T breast, 13.7 µM. Also, the TGI in the assay on TK-10 renal was over 100 µM; in the assay with U251 CNS it was 43.6 µM; with SR leukemia it was over 100 µM; in the assay on RPMI-8226 leukemia, over 100 µM; in the assay with COLO 205 colon it was over 100 µM; in the assay with SK-MEL-2 melanoma, over 100 µM. In addition, the TGI in the assay with OVCAR-5 ovarian was over 100 µM; in the assay on DU-145 prostate, over 100 µM; with SK-OV-3 ovarian, 54 µM; with HS 578T breast it was 55.8 µM.
`CC12CC=CCC1CCC1C2CCC2(C)C(c3ccc(=O)oc3)CCC12O` (stereo not given): the GI50 in the assay with TK-10 renal was 0.0607 µM; in the assay on U251 CNS it was 0.127 µM; in the assay on SR leukemia it was 0.03 µM; in the assay on RPMI-8226 leukemia, 0.107 µM; in the assay with COLO 205 colon it was 0.36 µM; in the assay with SK-MEL-2 melanoma, 0.24 µM. Also, the GI50 in the assay on OVCAR-5 ovarian was 0.186 µM; in the assay on DU-145 prostate, 0.0448 µM; in the assay with SK-OV-3 ovarian it was 0.276 µM; in the assay on HS 578T breast, 0.0335 µM. Also, the TGI in the assay on TK-10 renal came out at 0.496 µM; in the assay with U251 CNS it was 0.337 µM; in the assay with SR leukemia, 0.123 µM; with RPMI-8226 leukemia, 0.756 µM; with COLO 205 colon, 1.45 µM; with SK-MEL-2 melanoma, 0.741 µM. In addition, the TGI came out at 0.482 µM in the assay on OVCAR-5 ovarian, 0.168 µM in the assay with DU-145 prostate, 0.688 µM with SK-OV-3 ovarian and 0.473 µM in the assay with HS 578T breast.
Take `COc1ccc(NC(=O)n2nc(/C=C\c3ccc(O)c(OC)c3)cc2/C=C\c2ccc(O)c(OC)c2)cc1`: the GI50 was 10.2 µM with TK-10 renal; 3.55 µM in the assay on U251 CNS; 1.52 µM with SR leukemia; 3.38 µM in the assay with RPMI-8226 leukemia; 16.2 µM in the assay with COLO 205 colon; 3.23 µM in the assay with SK-MEL-2 melanoma. Also, the GI50 in the assay on OVCAR-5 ovarian is 18.8 µM; in the assay on DU-145 prostate, 3.99 µM; with SK-OV-3 ovarian, 3.66 µM; with HS 578T breast, 6.77 µM. Moreover, the TGI in the assay on TK-10 renal came out at 95.3 µM; with U251 CNS, 20.9 µM; in the assay on SR leukemia it was 12.8 µM; in the assay on RPMI-8226 leukemia, 29.2 µM; in the assay on COLO 205 colon, 44.3 µM; in the assay on SK-MEL-2 melanoma it was 18.1 µM. Moreover, the TGI stood at 54.1 µM with OVCAR-5 ovarian, 24.6 µM with DU-145 prostate, 27.5 µM in the assay with SK-OV-3 ovarian and 61.9 µM in the assay with HS 578T breast.
As to `Nc1nc(N)nc(CC(=O)O)n1`, the TGI with TK-10 renal, with U251 CNS, in the assay with SR leukemia, with RPMI-8226 leukemia, in the assay on COLO 205 colon and in the assay with SK-MEL-2 melanoma was over 100 µM throughout. Besides, the TGI in the assay on OVCAR-5 ovarian, in the assay with DU-145 prostate, with SK-OV-3 ovarian and in the assay on HS 578T breast was over 100 µM in each case.
As for `COc1cc2c3c(ncc2c(OC)c1OC)-c1cc2c(cc1C3)OCO2`, the GI50 with TK-10 renal is 19.3 µM; in the assay on U251 CNS it was 27.6 µM; in the assay with SR leukemia it was 0.25 µM; with RPMI-8226 leukemia, 33.4 µM; in the assay on COLO 205 colon it was over 100 µM; in the assay with SK-MEL-2 melanoma it was 11.7 µM. For the same compound, the GI50 was 58.5 µM in the assay on OVCAR-5 ovarian, 26.9 µM in the assay with DU-145 prostate, 21.6 µM in the assay with SK-OV-3 ovarian and 13.3 µM with HS 578T breast. Besides, the TGI was 46.5 µM in the assay on TK-10 renal; over 100 µM with U251 CNS; 17.6 µM in the assay on SR leukemia; over 100 µM in the assay on RPMI-8226 leukemia; over 100 µM with COLO 205 colon; 45.3 µM with SK-MEL-2 melanoma. Moreover, the TGI with OVCAR-5 ovarian is over 100 µM; in the assay with DU-145 prostate it was over 100 µM; in the assay on SK-OV-3 ovarian, 61.4 µM; in the assay on HS 578T breast, 37.5 µM.
In the case of `C/C(=C(/c1ccc(O)cc1)c1ccc(Cl)cc1)c1ccccc1`, the GI50 with TK-10 renal is 1.72 µM; with U251 CNS, 0.537 µM; with SR leukemia, 0.92 µM; in the assay on RPMI-8226 leukemia it was 0.583 µM; with COLO 205 colon it was 2.44 µM; with SK-MEL-2 melanoma, 0.659 µM. In addition, the GI50 is 1.17 µM in the assay with OVCAR-5 ovarian, 0.719 µM in the assay with DU-145 prostate, 1.04 µM with SK-OV-3 ovarian and 0.6 µM with HS 578T breast. Further, the TGI with TK-10 renal was found to be 5 µM; with U251 CNS, 1.18 µM; in the assay with SR leukemia it was 7.98 µM; in the assay on RPMI-8226 leukemia, 1.69 µM; with COLO 205 colon it was 5.96 µM; in the assay with SK-MEL-2 melanoma, 1.81 µM. The TGI in the assay with OVCAR-5 ovarian stood at 2.67 µM; in the assay with DU-145 prostate, 1.91 µM; in the assay on SK-OV-3 ovarian, 3.76 µM; with HS 578T breast, 1.67 µM.
